The source made the active and inactive calls. Some results are limits rather than exact numbers.

This is an account of results in ChEMBL document CHEMBL1201862, “PubChem BioAssay data set” (2004).

Assay [1] addresses T1, Dual specificity protein phosphatase 3 (Homo sapiens, UniProt P51452). In words: VHR1 inhibitor Ki determination, SAR follow-up, biochemical, colorimetric (AID 2004).
Assay [2] addresses T1, Dual specificity protein phosphatase 3. The assay is described as follows: MOA VHR1 Fluorescent secondary assay for identification of redox-state modulating compounds. [Related pubchem assays (depositor defined):AID1654, AID1661, AID1878, AID1957].
For assay [3], the target named is T2, Tyrosine-protein phosphatase non-receptor type 7 (Homo sapiens, UniProt P35236).
T2 sequence (P35236 whole entry): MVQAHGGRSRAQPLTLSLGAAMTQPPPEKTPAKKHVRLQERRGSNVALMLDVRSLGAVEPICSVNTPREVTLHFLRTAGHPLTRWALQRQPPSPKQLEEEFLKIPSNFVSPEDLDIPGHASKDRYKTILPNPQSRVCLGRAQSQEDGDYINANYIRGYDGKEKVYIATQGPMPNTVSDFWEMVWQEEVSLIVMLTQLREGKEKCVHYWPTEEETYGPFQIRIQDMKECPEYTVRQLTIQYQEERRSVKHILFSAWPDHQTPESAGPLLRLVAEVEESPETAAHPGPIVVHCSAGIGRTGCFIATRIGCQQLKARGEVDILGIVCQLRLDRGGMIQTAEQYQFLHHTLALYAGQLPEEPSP
The assay is described as follows: redox-dependent HePTP inhibition, mechanism study, biochemical, fluorescence (AID 2068). The class given is functional.

Assay [4] has as its target T3, Dual specificity protein phosphatase 6 (Rattus norvegicus, UniProt Q64346).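 Also: confirmatory in vitro dose-response testing of MKP-3 inhibition; recombinant His-tagged MKP-3 made in E. coli BL21 with OMFP substrate.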
T3 sequence (Q64346 whole entry): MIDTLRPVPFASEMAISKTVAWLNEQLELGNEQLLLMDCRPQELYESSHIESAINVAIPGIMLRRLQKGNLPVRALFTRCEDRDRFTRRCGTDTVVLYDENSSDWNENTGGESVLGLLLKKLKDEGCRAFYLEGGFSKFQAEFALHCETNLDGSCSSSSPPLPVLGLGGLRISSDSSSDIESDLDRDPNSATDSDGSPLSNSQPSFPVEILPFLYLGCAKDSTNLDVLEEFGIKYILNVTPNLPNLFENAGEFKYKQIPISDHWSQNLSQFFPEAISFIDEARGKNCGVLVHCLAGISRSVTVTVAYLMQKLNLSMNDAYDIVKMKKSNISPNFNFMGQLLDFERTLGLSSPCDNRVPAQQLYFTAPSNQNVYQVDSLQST
Type of assay: functional.

Assay [5] deals with T1, Dual specificity protein phosphatase 3. In words: SAR VHR1 Fluorescent Assay for In Vitro dose response studies. [Related pubchem assays (depositor defined):AID1654, AID1661, AID1878, AID1992, AID2004, AID2070, AID2085]. The class given is functional.
Assay [6] has as its target T2, Tyrosine-protein phosphatase non-receptor type 7. The assay is described as follows: HePTP (PTPN7) phosphatase inhibitor potency, SAR follow-up, biochemical, set 2 (AID 449736). The class given is functional.
Assay [7] deals with T1, Dual specificity protein phosphatase 3. The assay is described as follows: SAR VHR1 absorbance Assay for In Vitro dose response studies. [Related pubchem assays (depositor defined):AID1654, AID1661, AID1878, AID1992, AID2004].
The target in assay [8] is Tyrosine-protein phosphatase non-receptor type 12 (Homo sapiens, UniProt Q05209). In words: SAR Selectivity Analysis of small molecule inhibitors of PEST using pCAP in a fluorescence assay. [Related pubchem assays (depositor defined):AID1779, AID1784, AID2135]. Type of assay: functional.
For assay [9], the target named is T4, Low molecular weight phosphotyrosine protein phosphatase (Homo sapiens, UniProt P24666).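 Also: Dose-response confirmation assay measuring inhibition of LMPTP enzyme activity by fluorescence intensity read-out.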
T4 sequence (P24666 whole entry): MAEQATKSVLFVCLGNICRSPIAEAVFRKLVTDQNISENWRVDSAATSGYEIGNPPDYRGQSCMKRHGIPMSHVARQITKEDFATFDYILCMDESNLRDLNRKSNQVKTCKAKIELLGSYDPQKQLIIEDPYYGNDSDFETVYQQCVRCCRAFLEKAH
Type of assay: functional. Conditions: read-out: IC50_Mean.

In assay [10] the target is T5, Tyrosine-protein phosphatase non-receptor type 22 (Homo sapiens, UniProt Q9Y2R2).
T5 sequence (Q9Y2R2 whole entry): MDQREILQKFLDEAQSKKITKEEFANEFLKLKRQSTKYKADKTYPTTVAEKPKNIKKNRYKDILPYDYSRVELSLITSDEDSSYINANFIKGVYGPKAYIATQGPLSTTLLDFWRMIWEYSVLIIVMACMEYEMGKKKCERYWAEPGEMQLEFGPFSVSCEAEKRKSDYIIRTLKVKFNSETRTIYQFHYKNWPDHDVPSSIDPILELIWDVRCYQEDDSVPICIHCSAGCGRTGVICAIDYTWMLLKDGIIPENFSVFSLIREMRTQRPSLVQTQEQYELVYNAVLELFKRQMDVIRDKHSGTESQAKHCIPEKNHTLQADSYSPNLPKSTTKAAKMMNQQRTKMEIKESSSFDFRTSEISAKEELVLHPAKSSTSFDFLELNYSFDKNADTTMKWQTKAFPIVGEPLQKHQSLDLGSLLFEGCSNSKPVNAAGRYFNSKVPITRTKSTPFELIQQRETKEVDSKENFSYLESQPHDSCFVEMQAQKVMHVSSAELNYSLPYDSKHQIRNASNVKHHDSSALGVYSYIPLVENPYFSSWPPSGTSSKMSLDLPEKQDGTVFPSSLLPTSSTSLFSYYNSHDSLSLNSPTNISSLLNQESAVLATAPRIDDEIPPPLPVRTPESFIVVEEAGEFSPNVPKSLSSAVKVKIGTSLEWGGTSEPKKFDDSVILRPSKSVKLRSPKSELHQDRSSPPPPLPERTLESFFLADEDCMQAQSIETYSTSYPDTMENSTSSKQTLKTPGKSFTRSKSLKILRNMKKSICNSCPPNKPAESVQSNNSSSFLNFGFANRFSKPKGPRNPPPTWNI
The assay is described as follows: SAR LYP1 Fluorescent Assay using OMFP substrate for In Vitro dose response studies - Set 3. [Related pubchem assays (depositor defined):AID1779, AID1784, AID2140, AID2686]. Type of assay: functional.

The target of assay [11] is T5, Tyrosine-protein phosphatase non-receptor type 22. The assay is described as follows: LYP (PTPN22) phosphatase inhibitor potency, SAR follow-up, biochemical, pCAP fluorogenic substrate, fluorescence, set 3 (AID 449727). The class given is functional.
The target in assay [12] is DNA (cytosine-5)-methyltransferase 1 (Homo sapiens, UniProt P26358). In words: DNMT1 methyltransferase inhibitors, confirmation, biochemical, fluorescent molecular beacon (AID 602386). Type of assay: functional.
Assay [13] deals with Signal transducer and activator of transcription 3 (Homo sapiens, UniProt P40763). The assay is described as follows: STAT3 activators, late-stage profile, late-stage follow-up, cell-based, STAT1 reporter, BCL3 qPCR, cytotoxicity, panel member STAT3 Activation (AID 2049).
Assay [14] concerns the target T6, Eukaryotic translation initiation factor 2-alpha kinase 3 (Homo sapiens, UniProt Q9NZJ5). In words: Counterscreen assay for PERK inhibitors: Dose response cell-based high throughput screening assay to measure inhibition of PERK at 6 hours. [Related pubchem assays: 1522, 1416 ]. The class given is functional. A general note: The purpose of a counterscreen is to sort out artefacts and off-target activity.

Assay [15] addresses T6, Eukaryotic translation initiation factor 2-alpha kinase 3. In words: Dose response cell-based high-throughput screening assay to measure PERK inhibition. [Related pubchem assays: 1416 ]. The class given is functional.
For assay [16], the target named is Melanin-concentrating hormone receptor 1 (Homo sapiens, UniProt Q99705). In words: Fluorescence-based counterscreen for antagonists of the G-protein coupled receptor 7 (GPR7): cell-based high throughput dose response assay to identify antagonists of the melanin-concentrating hormone receptor 1 (MCHR1). The class given is functional.
Assay [17] addresses Neuropeptides B/W receptor type 1 (Homo sapiens, UniProt P48145). The assay is described as follows: Fluorescence-based dose response cell-based high throughput screening assay to identify antagonists of the G-protein coupled receptor 7 (GPR7). [Related pubchem assays: 1952 (Screening assay (GPR7 antagonists).), 1880 (Summary AID.)]. The class given is functional.
Assay [18] has as its target T7, Oxysterols receptor LXR-beta (Homo sapiens, UniProt P55055).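 Also: agonist activity at LXR measured by a cell-based luminescence readout across a dose range, run as a counterscreen for daf-12 agonists; HEK293 cells with Gal4-LXR fusion and GAL4-driven luciferase reporter; potency for activation of Gal4-LXR reporter so compounds are agonists.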
T7 sequence (P55055 whole entry): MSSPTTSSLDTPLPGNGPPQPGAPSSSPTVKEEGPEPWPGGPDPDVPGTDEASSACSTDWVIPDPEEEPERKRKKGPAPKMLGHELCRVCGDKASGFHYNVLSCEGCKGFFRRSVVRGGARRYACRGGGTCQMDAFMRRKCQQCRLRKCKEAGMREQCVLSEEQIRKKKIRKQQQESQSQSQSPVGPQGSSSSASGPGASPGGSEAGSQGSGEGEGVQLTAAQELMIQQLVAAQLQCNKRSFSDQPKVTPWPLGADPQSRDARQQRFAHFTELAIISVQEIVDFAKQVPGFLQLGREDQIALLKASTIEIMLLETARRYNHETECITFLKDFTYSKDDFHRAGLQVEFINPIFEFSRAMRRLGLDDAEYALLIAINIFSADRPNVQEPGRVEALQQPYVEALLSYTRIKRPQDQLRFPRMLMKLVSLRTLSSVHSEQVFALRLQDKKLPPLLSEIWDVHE
The class given is functional, cell-based.

Assay [19] is described as follows: HeLa cell cytotoxicity, dose response, cytotoxicity control for MgcRacGAP inhibitor project (AID 624300). Type of assay: functional.
The target of assay [20] is T8, Rac GTPase-activating protein 1 (Homo sapiens, UniProt Q9H0H5).
T8 sequence (Q9H0H5 whole entry): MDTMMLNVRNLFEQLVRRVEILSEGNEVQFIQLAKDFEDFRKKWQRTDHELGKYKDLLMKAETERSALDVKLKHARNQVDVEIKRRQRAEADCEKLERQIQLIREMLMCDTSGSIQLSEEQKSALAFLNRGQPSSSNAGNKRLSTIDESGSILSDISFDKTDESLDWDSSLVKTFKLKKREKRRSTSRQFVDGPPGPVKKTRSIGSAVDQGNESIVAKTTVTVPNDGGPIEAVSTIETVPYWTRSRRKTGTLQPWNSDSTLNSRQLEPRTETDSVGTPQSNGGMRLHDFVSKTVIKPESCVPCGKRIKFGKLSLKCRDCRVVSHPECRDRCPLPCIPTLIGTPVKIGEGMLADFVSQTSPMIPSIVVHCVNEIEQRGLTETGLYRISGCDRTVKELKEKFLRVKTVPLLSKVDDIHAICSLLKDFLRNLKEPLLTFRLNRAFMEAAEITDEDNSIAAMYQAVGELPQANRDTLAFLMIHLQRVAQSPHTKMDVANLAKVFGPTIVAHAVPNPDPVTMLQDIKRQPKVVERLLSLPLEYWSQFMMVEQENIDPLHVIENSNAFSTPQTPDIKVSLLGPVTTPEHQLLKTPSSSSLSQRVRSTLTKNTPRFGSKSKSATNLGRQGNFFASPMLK
In words: MgcRacGAP GTPase-activating activity inhibitors, confirmation, biochemical, ADP Hunter fluorescence, primary and confirmatory (AID 624330). The class given is functional.

Assay [21] deals with Scavenger receptor class B member 1 (Mus musculus, UniProt Q61009). In words: inhibitors of SR-BI mediated HDL lipid uptake, dose response, ldlA[mSR-BI] cells, fluorescence, cherry pick (AID 493194).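 Also: cellular uptake of fluorescent DiI-labeled HDL measured as cell fluorescence.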 Type of assay: functional, cell-based.
Assay [22] concerns the target Acyl-homoserine lactone acylase PvdQ (Pseudomonas aeruginosa (strain LESB58), UniProt Q9I194). In words: P. aeruginosa PvdQ acylase inhibitors, dose response, biochemical, fluorescence, plate reader and imaging, cherry-picks (AID 493231).
For assay [23], the target named is Neurotensin receptor type 1 (Homo sapiens, UniProt P30989). The class given is functional.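 Also: Image-based confirmatory dose-response assay measuring agonist activity at NTR1; NTR1-expressing U2OS osteosarcoma cells imaged for beta-arrestin GFP spot formation; agonist potency where compounds increase beta-arrestin recruitment.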
A short description of assay [24]: Luminescence Cell-Based Dose Retest to Confirm Inhibitors of Cancer Stem Cells. [Related pubchem assays (depositor defined):AID2717, AID2721]. Conditions: Homo sapiens. Type of assay: functional.
The target of assay [25] is Peroxisome proliferator-activated receptor gamma (Homo sapiens, UniProt P37231). The assay is described as follows: PPARg ligand-binding domain binders, dose response, PPARg partial agonist project, biochemical, TR-FRET, LanthaScreen (AID 504446). For orientation: In TR-FRET formats the signal depends on donor and acceptor labels being close together.
Peroxisome proliferator-activated receptor gamma, sequence (P37231 whole entry, the tested form may be a part): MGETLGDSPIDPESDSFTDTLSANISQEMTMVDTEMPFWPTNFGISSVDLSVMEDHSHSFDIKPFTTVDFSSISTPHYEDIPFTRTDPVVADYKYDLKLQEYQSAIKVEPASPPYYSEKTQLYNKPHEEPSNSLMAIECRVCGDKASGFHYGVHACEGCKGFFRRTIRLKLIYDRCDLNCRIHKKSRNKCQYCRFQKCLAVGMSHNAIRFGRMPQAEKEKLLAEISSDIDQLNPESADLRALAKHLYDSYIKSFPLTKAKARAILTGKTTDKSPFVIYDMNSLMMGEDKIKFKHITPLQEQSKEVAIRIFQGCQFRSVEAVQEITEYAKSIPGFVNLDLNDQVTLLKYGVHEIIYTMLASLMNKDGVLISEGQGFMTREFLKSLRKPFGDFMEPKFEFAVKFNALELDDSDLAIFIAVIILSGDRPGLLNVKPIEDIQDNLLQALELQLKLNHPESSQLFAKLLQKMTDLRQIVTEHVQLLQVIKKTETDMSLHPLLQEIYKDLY

T1 sequence (P51452 whole entry): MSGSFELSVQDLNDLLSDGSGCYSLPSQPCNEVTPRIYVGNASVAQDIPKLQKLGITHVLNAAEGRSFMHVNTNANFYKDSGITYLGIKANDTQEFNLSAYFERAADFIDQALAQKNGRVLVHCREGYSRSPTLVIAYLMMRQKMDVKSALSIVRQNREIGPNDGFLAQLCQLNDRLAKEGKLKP
T6 sequence (Q9NZJ5 whole entry): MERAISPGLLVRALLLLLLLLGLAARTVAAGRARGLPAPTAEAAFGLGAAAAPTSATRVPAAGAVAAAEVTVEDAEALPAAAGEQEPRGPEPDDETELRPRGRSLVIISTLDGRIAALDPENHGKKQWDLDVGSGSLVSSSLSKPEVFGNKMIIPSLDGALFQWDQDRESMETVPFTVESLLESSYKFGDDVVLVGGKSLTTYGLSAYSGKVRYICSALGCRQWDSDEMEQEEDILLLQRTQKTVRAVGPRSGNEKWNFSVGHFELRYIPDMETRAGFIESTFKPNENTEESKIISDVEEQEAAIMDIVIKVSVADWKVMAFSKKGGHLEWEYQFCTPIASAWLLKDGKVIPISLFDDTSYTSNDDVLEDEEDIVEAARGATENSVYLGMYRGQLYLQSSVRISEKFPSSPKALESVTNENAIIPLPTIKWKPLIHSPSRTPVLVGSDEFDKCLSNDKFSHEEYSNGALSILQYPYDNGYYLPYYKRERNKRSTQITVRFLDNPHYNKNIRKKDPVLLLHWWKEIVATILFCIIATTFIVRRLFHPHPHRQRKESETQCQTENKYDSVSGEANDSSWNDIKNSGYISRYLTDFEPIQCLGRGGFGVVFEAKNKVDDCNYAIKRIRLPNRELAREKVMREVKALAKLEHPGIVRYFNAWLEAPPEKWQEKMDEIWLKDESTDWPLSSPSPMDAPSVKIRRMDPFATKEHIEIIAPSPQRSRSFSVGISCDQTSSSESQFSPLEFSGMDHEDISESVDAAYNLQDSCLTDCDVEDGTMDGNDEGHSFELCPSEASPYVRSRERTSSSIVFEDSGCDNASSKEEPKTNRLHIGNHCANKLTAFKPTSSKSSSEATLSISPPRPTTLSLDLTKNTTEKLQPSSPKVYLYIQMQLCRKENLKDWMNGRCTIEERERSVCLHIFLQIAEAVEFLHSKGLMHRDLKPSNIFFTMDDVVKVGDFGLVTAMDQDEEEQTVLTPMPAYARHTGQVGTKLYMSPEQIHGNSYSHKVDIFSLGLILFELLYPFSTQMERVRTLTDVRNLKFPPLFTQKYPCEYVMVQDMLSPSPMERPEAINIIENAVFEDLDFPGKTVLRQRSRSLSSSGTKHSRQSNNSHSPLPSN
Acyl-homoserine lactone acylase PvdQ, sequence (Q9I194 24-193 limits assumed): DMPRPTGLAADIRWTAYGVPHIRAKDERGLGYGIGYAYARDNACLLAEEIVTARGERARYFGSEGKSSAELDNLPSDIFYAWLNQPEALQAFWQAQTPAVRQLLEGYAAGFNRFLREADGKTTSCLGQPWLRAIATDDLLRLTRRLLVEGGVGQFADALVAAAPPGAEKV
Acyl-homoserine lactone acylase PvdQ, sequence (Q9I194 217-762 limits assumed): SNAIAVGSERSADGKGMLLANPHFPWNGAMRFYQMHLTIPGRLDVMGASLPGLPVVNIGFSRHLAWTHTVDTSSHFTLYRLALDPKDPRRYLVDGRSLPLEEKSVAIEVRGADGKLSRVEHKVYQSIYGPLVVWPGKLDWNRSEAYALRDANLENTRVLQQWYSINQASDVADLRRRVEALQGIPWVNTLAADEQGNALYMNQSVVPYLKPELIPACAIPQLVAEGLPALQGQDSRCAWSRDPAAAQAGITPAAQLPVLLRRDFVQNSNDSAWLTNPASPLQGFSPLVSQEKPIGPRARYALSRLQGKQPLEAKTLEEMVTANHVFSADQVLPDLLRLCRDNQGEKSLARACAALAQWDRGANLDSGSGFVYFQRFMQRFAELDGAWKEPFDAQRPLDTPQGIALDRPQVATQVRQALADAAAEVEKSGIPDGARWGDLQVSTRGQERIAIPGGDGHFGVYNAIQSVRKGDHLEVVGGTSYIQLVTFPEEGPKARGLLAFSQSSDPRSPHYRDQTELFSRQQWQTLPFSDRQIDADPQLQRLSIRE
Signal transducer and activator of transcription 3, sequence (P40763 whole entry): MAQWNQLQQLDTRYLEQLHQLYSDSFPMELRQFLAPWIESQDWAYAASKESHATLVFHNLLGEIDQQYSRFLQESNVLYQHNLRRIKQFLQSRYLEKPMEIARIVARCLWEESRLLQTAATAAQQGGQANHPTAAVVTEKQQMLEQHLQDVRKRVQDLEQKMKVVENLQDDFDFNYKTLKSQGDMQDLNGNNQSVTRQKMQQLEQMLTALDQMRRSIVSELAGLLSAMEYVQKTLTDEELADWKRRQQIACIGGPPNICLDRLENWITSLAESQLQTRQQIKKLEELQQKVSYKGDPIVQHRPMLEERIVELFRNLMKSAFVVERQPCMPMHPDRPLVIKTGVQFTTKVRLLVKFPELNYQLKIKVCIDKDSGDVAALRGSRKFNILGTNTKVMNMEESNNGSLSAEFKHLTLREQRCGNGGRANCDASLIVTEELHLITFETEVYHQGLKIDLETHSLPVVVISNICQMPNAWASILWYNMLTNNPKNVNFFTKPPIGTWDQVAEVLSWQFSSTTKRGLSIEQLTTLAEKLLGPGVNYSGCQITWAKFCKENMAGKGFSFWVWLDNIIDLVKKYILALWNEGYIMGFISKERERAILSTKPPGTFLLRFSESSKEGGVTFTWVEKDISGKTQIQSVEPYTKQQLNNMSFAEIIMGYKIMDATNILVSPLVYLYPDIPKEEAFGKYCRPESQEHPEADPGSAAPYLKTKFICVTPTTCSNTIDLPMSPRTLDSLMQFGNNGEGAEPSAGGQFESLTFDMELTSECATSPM
Neurotensin receptor type 1, sequence (P30989 whole entry): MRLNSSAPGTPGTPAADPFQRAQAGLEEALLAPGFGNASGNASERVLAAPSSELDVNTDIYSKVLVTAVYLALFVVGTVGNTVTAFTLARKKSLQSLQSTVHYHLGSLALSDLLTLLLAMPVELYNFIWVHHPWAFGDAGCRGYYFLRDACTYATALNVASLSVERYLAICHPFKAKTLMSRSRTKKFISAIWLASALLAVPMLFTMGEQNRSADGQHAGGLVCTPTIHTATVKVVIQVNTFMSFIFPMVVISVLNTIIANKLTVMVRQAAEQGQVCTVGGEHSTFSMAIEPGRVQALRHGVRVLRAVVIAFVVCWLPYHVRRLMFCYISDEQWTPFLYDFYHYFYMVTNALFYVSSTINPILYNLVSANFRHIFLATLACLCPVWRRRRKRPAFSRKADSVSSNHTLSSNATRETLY
Melanin-concentrating hormone receptor 1, sequence (Q99705 whole entry): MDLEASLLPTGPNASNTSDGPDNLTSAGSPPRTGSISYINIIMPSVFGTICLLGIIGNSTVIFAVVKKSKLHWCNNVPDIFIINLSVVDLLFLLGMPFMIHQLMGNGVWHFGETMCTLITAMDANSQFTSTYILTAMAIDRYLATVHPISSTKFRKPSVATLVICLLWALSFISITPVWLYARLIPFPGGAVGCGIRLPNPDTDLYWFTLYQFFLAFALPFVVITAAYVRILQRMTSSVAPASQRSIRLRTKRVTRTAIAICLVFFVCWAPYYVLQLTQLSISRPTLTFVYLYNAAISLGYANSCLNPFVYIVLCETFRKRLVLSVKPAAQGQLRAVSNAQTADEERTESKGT
Scavenger receptor class B member 1, sequence (Q61009 whole entry): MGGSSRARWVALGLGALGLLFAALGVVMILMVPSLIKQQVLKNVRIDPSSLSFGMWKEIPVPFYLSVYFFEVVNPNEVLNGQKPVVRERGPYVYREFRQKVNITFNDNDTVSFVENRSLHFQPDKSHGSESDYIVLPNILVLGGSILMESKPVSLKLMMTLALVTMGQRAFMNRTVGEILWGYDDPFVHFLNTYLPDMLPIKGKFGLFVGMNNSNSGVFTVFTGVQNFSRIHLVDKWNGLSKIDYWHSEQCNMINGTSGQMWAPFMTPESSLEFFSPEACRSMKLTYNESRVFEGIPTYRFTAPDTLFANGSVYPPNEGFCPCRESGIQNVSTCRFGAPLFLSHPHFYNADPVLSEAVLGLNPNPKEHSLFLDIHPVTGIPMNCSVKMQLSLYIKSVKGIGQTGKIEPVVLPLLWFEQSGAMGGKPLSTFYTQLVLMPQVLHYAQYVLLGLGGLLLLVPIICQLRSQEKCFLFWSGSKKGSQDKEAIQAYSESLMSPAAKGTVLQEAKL
Neuropeptides B/W receptor type 1, sequence (P48145 whole entry, the tested form may be a part): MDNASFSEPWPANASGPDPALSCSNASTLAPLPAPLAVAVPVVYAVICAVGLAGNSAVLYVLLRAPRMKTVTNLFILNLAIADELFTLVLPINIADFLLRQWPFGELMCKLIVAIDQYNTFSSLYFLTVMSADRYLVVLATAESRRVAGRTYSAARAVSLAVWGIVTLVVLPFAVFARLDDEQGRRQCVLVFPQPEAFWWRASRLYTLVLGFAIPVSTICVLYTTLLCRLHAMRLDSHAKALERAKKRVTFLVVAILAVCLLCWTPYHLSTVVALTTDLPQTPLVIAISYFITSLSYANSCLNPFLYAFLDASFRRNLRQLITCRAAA

A word on the Ki: it is a measure of affinity in units of concentration, obtained from inhibition or displacement. For the molecule `Cc1cc(/C=C2/SC(=S)NC2=O)c(C)n1-c1cccc(Cl)c1`, the Ki in assay [1] is 82 µM (inactive).

For the molecule `CC1=C(C(=O)OC(C)C)C(c2ccc(Cl)cc2)n2c(sc(=Cc3ccc(OCC(=O)O)cc3)c2=O)=N1` (stereo not given), the IC50 in assay [2] is 1.93 µM (active); in assay [3] it was 0.391 µM (active); in assay [4], 41.8 µM (active); in assay [5], 12.3 µM (active); in assay [6] it was 0.304 µM (active); in [7], 0.967 µM (active). Also, the IC50 was 1.68 µM (active) in assay [8]; 6.66 µM (active) in assay [9]; 4.01 µM (active) in [10]; 3.63 µM (active) in [11]; 5.43 µM (active) in assay [12].

What is called EC50 is the concentration that produces a half-maximal response. Turning to `CN(C(=O)c1cc(C2CC2)on1)c1ccccc1`, in assay [13], the EC50 was > 55.7 µM (inactive).

With `CCCCOC(=O)C1C2C=C[C@]3(CN(CCCOC)C(=O)[C@H]13)O2` (stereo not given in full), the EC50 in assay [14] and in [15] was > 55.7 µM (not active) each time.

With `CS(=O)(=O)c1ccc2nc(NC(=O)Nc3ccccc3F)sc2c1`, the IC50 in [16] and in assay [17] was > 43.8 µM (not active) throughout. In addition, in assay [18], the EC50 was > 67.5 µM (inactive).

By CC50 is commonly meant the concentration at which the toxic effect on the cells reaches its halfway point. For orientation: AC50 means the concentration at which the activity in the assay is half-maximal. As to `C=C(CN(C)C)C(=O)c1ccc(OC2OC(COC(C)=O)C(OC(C)=O)C(OC(C)=O)C2OC(C)=O)cc1` (stereo not given), in [19], the CC50 is 100 µM (active). Moreover, the IC50 in assay [20] was 162 µM (active). In [21], the AC50 is 6.87 µM (active).

With `O=[N+]([O-])c1ccc(N2CCSCC2)cc1`, the AC50 in assay [22] is > 100 µM (inactive).

Consider `CC1=C(C(=O)OC2CCCCCCC2)C(c2cc3c(cc2Br)OCO3)CC(=O)N1` (stereo not given), for which the EC50 in [23] is 18.2 µM (active). For the same molecule, in assay [24], the AC50 was 3.59 µM (active).

`O=C(O)CCN1C(=O)/C(=C/c2ccccc2Cl)SC1=S`: the IC50 in assay [25] is 2 µM (active).
